Results taken from patent US8063062B2, “Compounds with a combination of cannabinoid-CB1 antagonism and acetylcholinesterase inhibition” (Solvay Pharmaceuticals B.V., priority 2006, dated 2011).
Like-named read-outs stand apart in the source and are kept apart here.

How the values were obtained:
acetylcholinesterase [1] = biological target: T1, acetylcholinesterase (Homo sapiens, UniProt P22303)
[2] = biological target: human cannabinoid CB1 receptor (Homo sapiens, UniProt P21554); assay: biochemical
Sequence of human cannabinoid CB1 receptor (P21554 whole entry): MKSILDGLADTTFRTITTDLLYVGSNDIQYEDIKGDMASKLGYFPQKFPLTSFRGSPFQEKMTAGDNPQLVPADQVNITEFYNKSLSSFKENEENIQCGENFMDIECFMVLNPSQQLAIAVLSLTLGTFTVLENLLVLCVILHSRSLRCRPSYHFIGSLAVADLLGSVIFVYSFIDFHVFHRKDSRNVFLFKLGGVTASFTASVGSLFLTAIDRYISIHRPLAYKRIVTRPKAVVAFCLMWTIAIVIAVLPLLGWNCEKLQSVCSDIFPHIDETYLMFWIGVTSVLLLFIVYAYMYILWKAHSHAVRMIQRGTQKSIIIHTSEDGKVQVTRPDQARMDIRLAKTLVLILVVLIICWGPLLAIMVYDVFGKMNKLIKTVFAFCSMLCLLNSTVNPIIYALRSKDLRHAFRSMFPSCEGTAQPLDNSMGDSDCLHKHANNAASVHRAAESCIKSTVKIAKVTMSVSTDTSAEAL
Protocol: After incubation of a freshly prepared cell membrane preparation with the [^3H]-ligand, with or without addition of compounds of the invention, separation of bound and free ligand was performed by filtration over glass fiber filters. Radioactivity on the filter was measured by liquid scintillation counting.

acetylcholinesterase [3] = biological target: T1, acetylcholinesterase; assay: biochemical

T1 sequence (P22303 32-614): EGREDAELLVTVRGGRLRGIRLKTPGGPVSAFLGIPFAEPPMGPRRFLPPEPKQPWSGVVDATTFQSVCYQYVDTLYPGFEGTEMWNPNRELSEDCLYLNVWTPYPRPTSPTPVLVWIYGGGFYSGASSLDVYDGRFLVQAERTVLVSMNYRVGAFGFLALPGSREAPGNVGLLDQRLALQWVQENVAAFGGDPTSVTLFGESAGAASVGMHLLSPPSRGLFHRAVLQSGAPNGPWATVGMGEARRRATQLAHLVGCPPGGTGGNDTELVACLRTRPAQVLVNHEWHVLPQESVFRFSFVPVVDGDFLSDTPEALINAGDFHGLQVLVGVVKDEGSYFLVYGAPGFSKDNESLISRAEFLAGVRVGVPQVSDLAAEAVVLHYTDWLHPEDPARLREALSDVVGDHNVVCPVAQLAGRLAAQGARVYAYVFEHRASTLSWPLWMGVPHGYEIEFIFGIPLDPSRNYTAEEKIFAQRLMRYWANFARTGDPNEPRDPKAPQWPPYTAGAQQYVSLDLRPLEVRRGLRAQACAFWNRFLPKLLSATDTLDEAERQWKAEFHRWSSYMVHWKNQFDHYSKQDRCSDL

Row | Compound | IC50 (acetylcholinesterase [1]) [µM] | Ki [2] [nM] | IC50 (acetylcholinesterase [3]) [µM]
1 | O=S(=O)(/N=C(/NCCCCNc1c2c(nc3ccccc13)CCCC2)N1CC(c2ccccc2)C(c2ccc(Cl)cc2)=N1)c1ccc(Cl)cc1 (stereo not shown) [compound 2, 4-chloro-N-{[3-(4-chlorophenyl)-4-phenyl-4,5-dihydro-1H-pyrazolyl]-[7-(1,2,3,4-tetrahydroacridin-9-yl-amino)butylamino]methylene}benzene sulfonamide] | 2.51 | 39.8 | –
2 | Cc1c(C(=O)NN2CCCCC2)nn(-c2ccc(Cl)cc2Cl)c1-c1ccc(Cl)cc1 [rimonabant] | 25.1 | – | –
3 | CN=C(NS(=O)(=O)c1ccc(Cl)cc1)N1C[C@H](c2ccccc2)C(c2ccc(Cl)cc2)=N1 [SLV319] | – | – | 6.31
